Experimental data published in patent US20260231945A1, “NEMATICIDAL COMPOUNDS, THEIR COMPOSITION AND USE THEREOF” (priority 2023, published 2026).

Experiments:
[1] = test system: Root-knot nematodes Meloidogyne spp. juveniles (J2); experiment: whole plant or invertebrate; assay type: in vivo; settings: 70-100 J2 juveniles, 22±2° C., 70±5% RH, dead/inactive counted at 24, 48, 72 and 96 hours (time of rating not stated); for mortality at 500 ppm: Meloidogyne
Description: The compound to be tested (4 mg) was dissolved in 40 μl of DMSO to make 100,000 PPM concentration stock solution. […] The nematode suspension (250 μl) having 70-100 juveniles (J2) of Root-knot nematodes Meloidogyne spp. pipetted out to each cell of 24 well bioassay plate. Sterile water (1 ml) was pipetted out in fresh 2.5 ml Eppendorf micro-centrifuge tubes. The desired concentration (500 ppm) of the compound was prepared by adding stock solution in 2.5 ml Eppendorf micro-centrifuge tubes. For each treatment 4 replications were maintained. The bioassay plates were incubated at 22±2° C. and 70±5% RH in humidity chambers.

[2] = Stability studies: storage at room temperature and under accelerated storage condition (ATS), purity estimated by HPLC; assay type: physicochemical; settings: properly packed material; for purity estimated by HPLC, Day 14 Condition 54° C. ± 2° C. / purity estimated by HPLC, Day Zero Condition 54° C. ± 2° C.: 54° C. ± 2° C. (accelerated storage)
Excerpt: The properly packed material was subjected to the conditions mentioned in the table below (Table 5).

N#Cc1ccc(/C=C/C=N/[C@@H](CCCNC(=N)N)C(=O)O)cc1 [Example 20, (E)-N^2-[(2E)-3-(4-cyanophenyl)prop-2-en-1-ylidene]-L-arginine]
mortality at 500 ppm [1]: 70 to 100% | purity estimated by HPLC, Day 14 Condition 25° C. ± 2° C. [2]: 99.50 | purity estimated by HPLC, Day 14 Condition 54° C. ± 2° C. [2]: 98.90 | purity estimated by HPLC, Day Zero Condition 25° C. ± 2° C. [2]: 99.55 | purity estimated by HPLC, Day Zero Condition 54° C. ± 2° C. [2]: 99.43

N=C(N)NCCC[C@H](/N=C/C=C/c1ccc2ccccc2c1)C(=O)O [Example 24, (E)-N^2-[(2E)-3-(naphthalen-2-yl)prop-2-en-1-ylidene]-L-arginine]
mortality at 500 ppm [1]: 50 to 69% | purity estimated by HPLC, Day 14 Condition 25° C. ± 2° C. [2]: 98.85 | purity estimated by HPLC, Day 14 Condition 54° C. ± 2° C. [2]: 98.90 | purity estimated by HPLC, Day Zero Condition 25° C. ± 2° C. [2]: 98.90 | purity estimated by HPLC, Day Zero Condition 54° C. ± 2° C. [2]: 98.75

N#Cc1ccc(C=CC=NC(CCCNC(=N)N)C(=O)O)c(C(F)(F)F)c1 (stereo not drawn) [Example 39]
% Mortality Rating ([1]; 500 ppm): A (70-100) | purity estimated by HPLC, Day 14 Condition 25° C. ± 2° C. [2]: 99.55 | purity estimated by HPLC, Day 14 Condition 54° C. ± 2° C. [2]: 99.60 | purity estimated by HPLC, Day Zero Condition 25° C. ± 2° C. [2]: 99.40 | purity estimated by HPLC, Day Zero Condition 54° C. ± 2° C. [2]: 99.40
